The values that follow come from patent US11014902B2, “MYC G-quadruplex stabilizing small molecules and their use” (The United States of America, as represented by the …, priority 2015, dated 2021).

Data set [1] is described as follows: Pharmacokinetic evaluation, blood plasma levels by mass spectrometry. As to conditions: single injection 19 mg/kg, female nude mice; for Tmax / half-life: mouse. The class given is in vivo. Here is the method: The blood plasma levels of Compound 23 after a single IP or IV injection (19 mg/kg) in female nude mice were determined by mass spectrometry (see FIG. 12 and the following table).

Data set [2] deals with c-Myc protein in H1299 cells. Briefly: c-Myc protein expression by Western blot, H1299. The settings on record: 10 μM. The class given is cell-based, human. The protocol: The effect of Compound 23 on the expression of c-Myc protein in the human lung cancer cell lines H1299 and H157 was also assayed. H1299 and H157 cells were treated with 10 μM Compound 23 and c-Myc protein expression levels quantified by Western blot. In Compound 23-treated H1299 cells, c-Myc protein expression levels were approximately 55% compared to untreated control cells. In Compound 23-treated H157 cells, c-Myc protein expression levels were approximately 74% compared to untreated control cells.
For orientation: In western blotting, separated proteins are transferred to a membrane and probed.

Data set [3] deals with KMS12PE. Briefly: Multiple myeloma cell viability. The class given is cell-based. The settings on record: Homo sapiens, KMS-12-PE. Here is the method:
(§1) Human multiple myeloma and Burkitt's Lymphoma cell lines L363, CA46, MM-1R, KMS-11, and MM-1S were cultured and authenticated as previously described (Simmons, et al., Molecular oncology 2014, 8, 261). All plasma derived cell lines were cultured in RPMI-1640 (2 mM L-glutamine, 10% fetal bovine serum (FBS), 100 U/ml penicillin, 100 μg/ml streptomycin: Gibco) and incubated at 37° C. with 5% CO2. Viability experiments were performed in quadruplicate on 96-well plates (Costar) at designated time and dose points. MTS reagent was then directly added, incubated at 37° C. for 90 min, and absorbance of MTS formazan was read at 500 nm on an Omega 640 spectrophotometer. Percentage cell viability was normalized to the absorbance of untreated (DMSO) wells. In the case of cells harvested for their protein or RNA, pellets were flash frozen and stored at −80° C. overnight prior to use.
(§2) Additional multiple myeloma cell lines were assayed for cell viability in the presence of Compound 23, and the following IC50 values were determined.

Data set [4] concerns AMO1. Briefly: Multiple myeloma cell viability. The settings on record: Homo sapiens. The data set is classed as cell-based. Here is the method: as §1, §2
Data set [5] relates to JIM1. Briefly: Multiple myeloma cell viability. The data set is classed as cell-based. Here is the method:
as §1, §2

Data set [6] has as its system KMM1. Briefly: Multiple myeloma cell viability. The class given is cell-based. The settings on record: KMM-1. The protocol: as §1, §2
Data set [7] concerns ARD. Briefly: Multiple myeloma cell viability. The data set is classed as cell-based. Here is the method: as §1, §2
Data set [8] relates to KMS27. Briefly: Multiple myeloma cell viability. The class given is cell-based. The settings on record: KMS-27. Here is the method: as §1, §2
The test system of data set [9] is CA46 Burkitt's Lymphoma line. The data set can be described thus: CA46 cell viability. The data set is classed as cell-based, human. The protocol: (§3) Since two thirds of multiple myeloma cases involve deregulated c-MYC expression (Kuehl and Bergsagel, Blood 2012, 120, 2351; Shou, et al., Proc Natl Acad Sci USA 2000, 97, 228), we elected to evaluate the cell viability effects of Compound 1 in a multiple myeloma model. […] This suppression was maintained over 72 hours, which is notable given the characteristic rapid replenishment of the protein—a phenomenon that complicates targeting c-Myc at the protein level (FIG. 4C). This effect was maintained across a genetically diverse set of 4 multiple myeloma lines. We observed decreases in c-MYC translation in all lines tested, and this effect also correlated with decreases in viability (FIG. 4D).
as §1, with “Viability experiments were performed in quadruplicate on 96-well plates (Costar) at designated time and dose points.” left out, “In the case of cells harvested for their protein or RNA, pellets were flash frozen and stored at −80° C. overnight prior to use.” left out

Data set [10] concerns KRAS, VEGF G4s. The data set can be described thus: Biophysical measurements of compound affinity, KRAS and VEGF G4s. The class given is binding.
In data set [11] the test system is c-MYC exon 1 transcription in CA46 cells. The data set can be described thus: Exon specific qPCR assay, exon 1. The data set is classed as cell-based, human. As to conditions: 10 μM, up to 48 hours. From the text:
To confirm a G4 specific mechanism of action in cells, the CA46 Burkitt's Lymphoma line was used in an exon-specific assay, as previously reported (Boddupally, et al., J Med Chem 2012, 55, 6076). For most cell lines, 85-90% of c-Myc expression is controlled by the G4 located prior to exons 1 and 2 in the promoter. Furthermore, expression predominantly occurs following exon 2, due to a thousand-fold increase in transcription from this allele (Brown, et al., J Biol Chem 2011, 286, 41018). The CA46 Burkitt's Lymphoma cell line is an exception to this trend due to the existence of a chromosome (8:14) (Pelicci, et al., Proc Natl Acad Sci USA 1986, 83, 2984) translocation between exons 1 and 2, leaving exon 1 under G4 control. As a result, c-Myc expression from exon 2 is G4 independent (FIG. 3B). This renders the overall cell line resistant to G4-mediated c-Myc inhibition at the RNA and protein level, and proliferation should be uninhibited by G4-stabilizing agents.
CA46 cells were treated with ligands of interest or DMSO control at designated time points, washed in PBS, flash frozen, and RNA isolated using the Qiagen RNeasy Kit. RNA was quantified by NanoDrop, and 0.5 μg was reverse transcribed for use in qPCR. […]

In data set [12] the test system is myeloma cells. Briefly: Senescence in myeloma cells. The class given is cell-based, human. The settings on record: 10 μM, after 72 hours.
The test system of data set [13] is RB1, BCL2 G4s. The data set can be described thus: Biophysical measurements of compound affinity, RB1 and BCL2 G4s. The class given is binding.
Data set [14] has as its system c-Myc transcription. Briefly: c-Myc transcription in myeloma cells (qPCR). The class given is cell-based, human. The settings on record: 10 μM, after 24 hours. The protocol:
as §3

The subject of data set [15] is myeloma cells. Briefly: Apoptosis (Annexin V/7-AAD staining, FACS). The data set is classed as cell-based, human. As to conditions: 10 μM, 72 h. Here is the method:
To further explore the mechanism of action for the anticancer activity of Compound 1, cell cycle analysis was performed and monitored for potential induction of apoptotic death. […] Additionally, minimal increases in apoptosis were observed, by Annexin V/7-AAD staining and FACS analysis; only 13% of the cells were undergoing apoptosis (FIG. 5B).

Regarding `Cc1oc2ccc(O)c(CN3CCCCCC3)c2c1C(=O)Nc1ccc(C(F)(F)F)cc1` [Compound 23], the Kel in data set [1] (IP) and in data set [1] (IV) was 0.277 h⁻¹ in each case. Further, the time of peak concentration (Tmax) (in general, the time from dosing to the highest level) in [1] (IP) is 1 h; in data set [1] (IV) it was 0.38 h. The half-life (commonly how long it takes for the measured level to halve) in data set [1] (IP) was 6.5 h; in [1] (IV) it was 2.25 h. The “c-Myc protein expression levels compared to untreated control cells” value in data set [2] is given as “approximately 55%”. Also, the IC50 (in general, the concentration needed to halve the response being measured) in data set [3] was found to be 5.33 µM; in [4], 5.92 µM; in data set [5], 6.35 µM; in [6], 4.13 µM; in [7], 5.75 µM; in data set [8], 5.06 µM.
Regarding `Cc1ccc(NC(=O)c2c(C)oc3ccc(O)c(CN4CCCCCC4)c23)cc1` [Compound 1], the cell viability entry in data set [9] is “negligible changes”. The G4 binding entry in [10] was “complete lack of G4 binding”. In addition, the “transcription from exon 1” value in data set [11] is “sustained downregulation”. Besides, the senescent state result in data set [12] is listed as “triggered a senescent state”. In addition, the “G4 binding relative to MYC” value in data set [13] was “weaker binding”. Moreover, the “decrease in c-Myc transcription” value in [14] is given as “seven-fold decrease”. The compound further gave a cells undergoing apoptosis in [15] of 13%.
